Assay results taken from ChEMBL document CHEMBL1158831, “Meroditerpenoids from a Formosan soft coral Nephthea chabrolii” (J Nat Prod, 2005).

Experiments:
Format in all cases: functional, cell-based
[1] = test system: HepG2; experiment: Cytotoxicity against human HepG2 cells after 6 days by MTT method; settings: HepG2, 144 h
[2] = test system: A549; experiment: Cytotoxicity against human A549 cells after 6 days by MTT method; settings: A549, 144 h
[3] = test system: MDA-MB-231; experiment: Cytotoxicity against human MDA-MB-231cells after 6 days by MTT method; settings: MDA-MB-231, 144 h

Structure (SMILES) | IC50 [1] [µM] | IC50 [2] [µM] | IC50 [3] [µM]
CC(=O)O[C@H](CC/C(C)=C/CC/C(C)=C/CC1=CC(=O)C(C)=CC1=O)[C@@](C)(O)CCC=C(C)C [CHABROLOBENZOQUINONE H] | > 42.5 | 38 | 31.4
CC(=O)O[C@H](CC/C(C)=C/CCc1ccc2c(c1)C(=O)C(C)=CC2=O)[C@@](C)(O)CCC=C(C)C [CHABROLONAPHTHOQUINONE B] | 12.4 | 33.9 | 4.7
COc1cccc2c1C(=O)c1c(O)c3c(c(O)c1C2=O)C[C@@](O)(C(=O)CO)C[C@@H]3O[C@H]1C[C@H](N)[C@H](O)[C@H](C)O1 [DOXORUBICIN] | 0.17 | 0.17 | 0.07
CC(=O)OC/C(=C\CC/C(C)=C/CC/C(C)=C/CC1=CC(=O)C(C)=CC1=O)CCC=C(C)C [CHABROLOBENZOQUINONE F] | 38.1 | 38.1 | 33.2
CC(C)=CCC/C(C)=C/CC/C(C)=C/CC[C@](C)(O)/C=C\c1cc(O)c(C)cc1O [CHABROLOHYDROXYBENZOQUINONE E] | > 48.5 | > 48.5 | > 48.5
CC(C)=CCC/C(C)=C/[C@@H](O)C/C(C)=C/CC[C@](C)(O)/C=C\c1cc(O)c(C)cc1O [CHABROLOHYDROXYBENZOQUINONE F] | 44.4 | 42.3 | > 46.7
CC(C)=CCC/C(=C/CC/C(C)=C/CC/C(C)=C/CC1=CC(=O)C(C)=CC1=O)CO [CHABROLOBENZOQUINONE E] | > 48.8 | > 48.8 | > 48.8
CC(=O)O[C@H](CC/C(C)=C/CC[C@](C)(O)/C=C\c1cc(O)c(C)cc1O)[C@@](C)(O)CCC=C(C)C [CHABROLOHYDROXYBENZOQUINONE G] | 18.4 | 26.8 | 18
